Measurements published in patent US20200216449A1, “4-Sulfur Substituted Podophyllotoxin Derivative and Preparation Method Therefor and Use Thereof” (priority 2017, published 2020).

Tests used:
HepG2 = assay: MTT test for inhibition of tumor cells, HepG2; type: cell-based; settings: 48 h
HeLa = assay: MTT test for inhibition of tumor cells, HeLa; type: cell-based; settings: 48 h
Procedure: HepG2, HeLa cell lines and human normal liver cells HL-7702 in a logarithmic growth period were centrifuged at 1000 rpm for 5 min, and the supernatant was discarded, the cells were suspended with a suitable amount of culture medium to adjust the cell concentration to 3.5×10^4/well, the cells were seeded in 96-well plates, and the following experimental groups were set:
100 μl of DMSO was added to each well, followed by shaking on a shaker for 30 min at 37° C., the absorbance (OD) was measured at 492 nm, and the MTT ratio was calculated as the OD value of drug group/OD value of negative control group.

HL-7702 = assay: MTT test on human normal hepatocytes HL-7702; type: cell-based; settings: human normal hepatocytes HL-7702, MTT, 48 h
A549 = assay: IC50 against human lung cancer cell A549; type: cell-based; settings: for antitumor activity on A549 compared with etoposide: vs etoposide
MCF7 = assay: IC50 against breast cancer cell MCF7; type: cell-based, human; settings: vs etoposide
MRC-5 = assay: IC50 against human embryonic lung cells MRC-5; settings: for toxicity on normal cell line MRC-5 compared with etoposide: vs etoposide
HMEC = assay: IC50 against human mammary epithelial cells HMEC; settings: for toxicity on normal cell line HMEC compared with etoposide: vs etoposide
H8 = assay: IC50 against human cervical immortalized cells H8; settings: for toxicity on normal cell line H8 compared with etoposide: vs etoposide

Compound	IC50 (HepG2) [µM]	IC50 (HeLa) [µM]	IC50 (HL-7702) [µM]	other results
COc1cc([C@@H]2c3cc4c(cc3[C@@H](Sc3nc5cc(F)ccc5s3)[C@H]3COC(=O)[C@H]23)OCO4)cc(OC)c1O [Compound 8, 4β-S-(5-fluorobenzothiazol-2)-4′-demethylepipodophyllotoxin]	1.49 ± 0.12	2.3 ± 0.12	966.2 ± 7.31	antitumor activity on A549 compared with etoposide (A549): significantly improved; antitumor activity on MCF7 compared with etoposide (MCF7): significantly improved; toxicity on normal cell line MRC-5 compared with etoposide (MRC-5): significantly lower; toxicity on normal cell line HMEC compared with etoposide (HMEC): significantly lower; toxicity on normal cell line H8 compared with etoposide (H8): significantly lower
COc1cc(C2c3cc4c(cc3C(Sc3nc5cc(F)ccc5o3)C3COC(=O)C23)OCO4)cc(OC)c1OC (stereo not drawn) [Compound 9, 4β-S-(5-Fluorobenzoxazol-2)-podophyllotoxin]			> 1000	
COc1cc([C@@H]2c3cc4c(cc3[C@@H](Sc3nc5ncccc5[nH]3)[C@H]3COC(=O)[C@H]23)OCO4)cc(OC)c1O [Compound 22, 4β-S-(1H-imidazo[4,5-B]pyridin-2)-4′-demethylepipodophyllotoxin]	8.31 ± 0.43	> 100	33.5 ± 3.25	
COc1cc([C@@H]2c3cc4c(cc3[C@@H](Sc3ccc5ccccc5c3)[C@H]3COC(=O)[C@H]23)OCO4)cc(OC)c1O [Compound 20, 4β-S-(naphthalen-2)-4′-demethylepipodophyllotoxin]	6.02 ± 0.25	5.54 ± 0.3	76.8 ± 2.11	
4β-S-(5-phenylbenzoxazol-2)-4′-demethylepipodophyllotoxin [Compound 12]	10.2 ± 0.46	> 100	56.8 ± 1.32	
4β-S-(3-phenyl-1,3,4-thiadiazol-2(3H)thione potassium salt-5)-4′-demethylepipodophyllotoxin [Compound 26]	5.7 ± 0.33	48.49 ± 0.38		
COc1cc(C2c3cc4c(cc3C(O)C3COC(=O)C23)OCO4)cc(OC)c1O (centres unmarked) [4′-Demethylepipodophyllotoxin, 4′-demethylepipodophyllotoxin, reference compound]	49.32 ± 0.38	63.09 ± 0.49	52.9 ± 0.85	
COc1cc([C@@H]2c3cc4c(cc3[C@@H](Sc3ccc(F)cc3)[C@H]3COC(=O)[C@H]23)OCO4)cc(OC)c1O [Compound 6, 4β-S-(4-fluorobenzene-1)-4′-demethylepipodophyllotoxin]	4.24 ± 0.97	55.28 ± 0.21	51 ± 0.88	
COc1cc([C@@H]2c3cc4c(cc3[C@@H](Sc3nc5cc(F)ccc5o3)[C@H]3COC(=O)[C@H]23)OCO4)cc(OC)c1O [Compound 10, 4β-S-(5-fluorobenzoxazol-2)-4′-demethylepipodophyllotoxin]	1.55 ± 0.29	1.49 ± 0.14	2000 ± 12.8	IC50 (A549; human lung cancer cell A549): 2.34 ± 0.16 µM; antitumor activity on A549 compared with etoposide (A549): significantly improved; antitumor activity on MCF7 compared with etoposide (MCF7): significantly improved; IC50 (MRC-5; read-out: IC50 MRC-5, normal cell line, human embryonic lung cells MRC-5): 348.9 ± 3.1 µM; toxicity on normal cell line MRC-5 compared with etoposide (MRC-5): significantly lower; IC50 (HMEC; read-out: IC50 HMEC, normal cell line, human mammary epithelial cells HMEC): 323.4 ± 3.21 µM; toxicity on normal cell line HMEC compared with etoposide (HMEC): significantly lower; IC50 (H8; read-out: IC50 H8, normal cell line, human cervical immortalized cells H8): 518.9 ± 1.9 µM; toxicity on normal cell line H8 compared with etoposide (H8): significantly lower
4β-S-(6-chlorobenzoxazol-2)-4′-demethylepipodophyllotoxin [Compound 16]	22.3 ± 1.46	32.3 ± 1.87	68.3 ± 4.5	
COc1cc([C@@H]2c3cc4c(cc3[C@@H](Sc3nnnn3-c3ccccc3)[C@H]3COC(=O)[C@H]23)OCO4)cc(OC)c1O [Compound 24, 4β-S-(1-phenyltetrazol-5)-4′-demethylepipodophyllotoxin]	59.69 ± 0.31	9.73 ± 0.11	71 ± 3.67	
